“Also recorded” adds a separate entry of the source. Where a name gives a salt, the structure may show the parent alone.
Assays:
[1] = Solubility of rosiglitazone salts in 0.1 M hydrochloric acid (Example 7); format: physicochemical; conditions: 1 g salt
Source text: Contrary to some other salts of rosiglitazone, the above-described crystalline salt of formula III is well soluble in water and in aqueous solutions of hydrochloric acid. Especially the solubility in solutions of hydrochloric acid is very important considering the acidobasic conditions in the digestive system (especially in the stomach). It offers indication of the solubility of the substance after it is digested, which is a very important factor for evaluating pharmaceutical effectiveness of the substance. A comparison of the solubility of the salt of the compound of formula III in acidic environment with some of several other rosiglitazone salts is documented in Example 7. […] However, neither the same amount of rosiglitazone hydrochloride prepared according to WO 2000/063205 nor the same amount of pharmaceutically used rosiglitazone maleate of formula II prepared according to WO 94/05659 could be dissolved under the same conditions.
Solubility was determined for crystalline rosiglitazone oxalate of chemical formula III, which was prepared by the procedure according to Example 1. 1 g of crystalline salt of formula III was dissolved under stirring and at 25° C. in 20, 30, 35 a 40 ml of a 0.1M solution of hydrochloric acid. The mixture was stirred at 25° C. for five minutes. When using 20 and 30 ml of the solvent, there was obtained no solution.

[2] = Solubility in water and aqueous hydrochloric acid, stated only in words; format: physicochemical; conditions: crystalline form

Row | SMILES | Dissolution of the same amount (1 g) at the same conditions ([1]; 20 to 40 ml 0.1M hydrochloric acid, 25° C., stirred five minutes) | Dissolution after extension of the time and another dilution ([1]; extended dissolution time, further dilution with 0.1 M hydrochloric acid) | Dissolution of 1 g of salt in 20 ml of solvent ([1]; 20 ml 0.1M hydrochloric acid, 25° C., stirred five minutes) | Dissolution of 1 g of salt in 30 ml of solvent ([1]; 30 ml 0.1M hydrochloric acid, 25° C., stirred five minutes) | Dissolution of 1 g of salt in 35 ml of solvent ([1]; 35 ml 0.1M hydrochloric acid, 25° C., stirred five minutes) | Dissolution of 1 g of salt in 40 ml of solvent ([1]; 40 ml 0.1M hydrochloric acid, 25° C., stirred five minutes) | Solubility in water and in aqueous solutions of hydrochloric acid [2]
1 | CN(CCOc1ccc(CC2SC(=O)NC2=O)cc1)c1ccccn1 (stereo not shown) [rosiglitazone maleate, reference compound] | neither dissolving | No solutions could be obtained | – | – | – | – | –
2 | CN(CCOc1ccc(CC2SC(=O)NC2=O)cc1)c1ccccn1 (stereo not shown) [III] | – | – | no solution | no solution | cloudy solution | completely dissolved; also recorded: no cloudy solution | well soluble
